Tests used:
[1] = molecular target: T1, Diacylglycerol lipase-beta (Mus musculus, UniProt Q91WC9); experiment: Inhibition mouse DAGLbeta expressed in HEK293T cell membrane fractions using DAG as substrate preincubated for 30 mins followed by ABP HT01 probe addition measured after 30 mins in presence of probe by gel-based ABPP competition assay
T1 sequence (Q91WC9 whole entry): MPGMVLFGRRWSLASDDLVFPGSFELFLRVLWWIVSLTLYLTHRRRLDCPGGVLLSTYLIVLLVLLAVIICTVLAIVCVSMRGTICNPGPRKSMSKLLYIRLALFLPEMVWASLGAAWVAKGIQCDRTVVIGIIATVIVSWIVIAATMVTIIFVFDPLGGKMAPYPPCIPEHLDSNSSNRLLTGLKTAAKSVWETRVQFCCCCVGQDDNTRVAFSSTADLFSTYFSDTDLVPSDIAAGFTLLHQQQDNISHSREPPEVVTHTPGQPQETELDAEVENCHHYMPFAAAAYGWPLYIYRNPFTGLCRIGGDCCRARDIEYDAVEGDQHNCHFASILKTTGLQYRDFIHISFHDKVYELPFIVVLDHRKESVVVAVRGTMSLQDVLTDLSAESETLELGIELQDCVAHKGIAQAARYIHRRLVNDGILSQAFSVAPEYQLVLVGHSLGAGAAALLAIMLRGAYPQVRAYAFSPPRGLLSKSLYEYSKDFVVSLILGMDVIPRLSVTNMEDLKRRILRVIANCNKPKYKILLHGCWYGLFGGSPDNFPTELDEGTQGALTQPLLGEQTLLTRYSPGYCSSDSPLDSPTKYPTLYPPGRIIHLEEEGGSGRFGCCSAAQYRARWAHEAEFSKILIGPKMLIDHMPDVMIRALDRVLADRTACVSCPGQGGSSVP

[2] = molecular target: T1, Diacylglycerol lipase-beta; experiment: Inhibition of V-tagged mouse DAGLbeta expressed in […] cell membrane fractions using SAG as substrate assessed as accumulation of 2-AG preincubated for 30 mins followed by substrate addition measured after 30 mins by LC-MS natural substrate assay
[3] = molecular target: T2, Diacylglycerol lipase-alpha (Homo sapiens, UniProt Q9Y4D2); experiment: Inhibition human DAGLalpha expressed in HEK293T cell membrane fractions using DAG as substrate preincubated for 30 mins followed by ABP HT01 probe addition measured after 30 mins in presence of probe by gel-based ABPP competition assay
T2 sequence (Q9Y4D2 whole entry): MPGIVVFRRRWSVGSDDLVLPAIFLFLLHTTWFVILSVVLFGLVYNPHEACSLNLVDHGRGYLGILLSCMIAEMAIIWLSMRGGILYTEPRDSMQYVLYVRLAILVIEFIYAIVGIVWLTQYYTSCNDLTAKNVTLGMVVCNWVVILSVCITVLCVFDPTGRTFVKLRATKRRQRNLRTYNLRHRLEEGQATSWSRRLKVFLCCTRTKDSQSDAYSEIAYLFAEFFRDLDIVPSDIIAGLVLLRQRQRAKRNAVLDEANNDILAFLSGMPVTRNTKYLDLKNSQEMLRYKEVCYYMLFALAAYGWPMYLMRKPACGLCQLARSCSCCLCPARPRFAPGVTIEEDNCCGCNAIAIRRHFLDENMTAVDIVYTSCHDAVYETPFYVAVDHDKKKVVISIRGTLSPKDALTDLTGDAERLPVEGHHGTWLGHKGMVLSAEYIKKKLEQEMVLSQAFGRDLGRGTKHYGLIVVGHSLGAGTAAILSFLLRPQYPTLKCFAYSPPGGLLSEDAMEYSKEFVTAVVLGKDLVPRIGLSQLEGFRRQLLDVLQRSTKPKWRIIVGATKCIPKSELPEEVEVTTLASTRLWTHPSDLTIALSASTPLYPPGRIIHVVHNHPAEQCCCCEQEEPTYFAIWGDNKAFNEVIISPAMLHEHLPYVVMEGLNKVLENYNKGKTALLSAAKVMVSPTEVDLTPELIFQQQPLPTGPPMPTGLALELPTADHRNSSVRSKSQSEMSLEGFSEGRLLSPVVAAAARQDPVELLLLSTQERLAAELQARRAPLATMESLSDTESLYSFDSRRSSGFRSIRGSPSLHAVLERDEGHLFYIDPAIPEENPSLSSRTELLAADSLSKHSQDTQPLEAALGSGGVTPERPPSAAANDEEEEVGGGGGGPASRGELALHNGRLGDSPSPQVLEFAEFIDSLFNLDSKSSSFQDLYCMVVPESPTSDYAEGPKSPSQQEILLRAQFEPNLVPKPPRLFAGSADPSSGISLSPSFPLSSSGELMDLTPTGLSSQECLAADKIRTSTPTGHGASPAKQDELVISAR

[4] = molecular target: T2, Diacylglycerol lipase-alpha; experiment: Inhibition of human GST-tagged DAGLalpha expressed in HEK293F cell membranes using 1-stearoyl-2-arachidonoyl-sn-glycerol as substrate preincubated for 20 mins followed by substrate addition by enzyme coupled natural substrate assay
[5] = molecular target: T1, Diacylglycerol lipase-beta; experiment: Inhibition of mouse DAGLbeta expressed in HEK293T cell membranes using SAG as substrate preincubated for 20 mins followed by substrate addition by enzyme coupled natural substrate assay
[6] = molecular target: T1, Diacylglycerol lipase-beta; experiment: Inhibition of full length 3' FLAG-tagged mouse DAGLbeta expressed in African green monkey COS7 cells using sn-1-stearoyl-[14C]-arachidonoyl-glycerol as substrate preincubated for 15 mins followed by substrate addition measured after 30 mins by radiometric natural substrate assay; format: cell-based
[7] = molecular target: T2, Diacylglycerol lipase-alpha; experiment: Inhibition of human C-terminal HA-tagged DAGLalpha expressed in HEK293F cell membrane fractions using PNP butyrate as substrate by colorimetric surrogate substrate assay
[8] = molecular target: T2, Diacylglycerol lipase-alpha; experiment: Inhibition of human C-terminal HA-tagged DAGLalpha expressed in HEK293F cell membrane fractions using DiFMU-octanoate as substrate by fluorogenic surrogate substrate assay
Cannabinoid receptor 1 = Cannabinoid receptor 1 (Homo sapiens, UniProt P21554); experiment: Antagonist activity at CBR1 (unknown origin)
Sequence of Cannabinoid receptor 1 (P21554 whole entry, the tested form may be a part): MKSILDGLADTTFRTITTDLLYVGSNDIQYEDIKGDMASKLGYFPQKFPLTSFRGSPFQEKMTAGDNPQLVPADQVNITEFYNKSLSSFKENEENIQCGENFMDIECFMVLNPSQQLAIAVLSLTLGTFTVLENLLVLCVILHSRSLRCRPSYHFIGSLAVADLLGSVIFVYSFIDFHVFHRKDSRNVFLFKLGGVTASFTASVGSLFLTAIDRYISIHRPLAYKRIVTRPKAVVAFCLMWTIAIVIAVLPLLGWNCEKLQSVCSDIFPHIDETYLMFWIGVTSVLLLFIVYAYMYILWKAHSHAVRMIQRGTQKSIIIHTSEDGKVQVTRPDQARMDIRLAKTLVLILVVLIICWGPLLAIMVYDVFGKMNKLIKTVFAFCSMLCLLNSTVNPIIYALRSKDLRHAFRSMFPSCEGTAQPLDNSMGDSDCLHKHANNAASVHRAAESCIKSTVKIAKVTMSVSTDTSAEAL

[9] = molecular target: T3, Diacylglycerol lipase-beta (Homo sapiens, UniProt Q8NCG7); experiment: Inhibition of human GST-tagged DAGLbeta catalytic domain expressed in HEK293F cell membranes using EnzChek as substrate preincubated for 5 mins followed by substrate addition by fluorogenic surrogate substrate assay
T3 sequence (Q8NCG7 whole entry): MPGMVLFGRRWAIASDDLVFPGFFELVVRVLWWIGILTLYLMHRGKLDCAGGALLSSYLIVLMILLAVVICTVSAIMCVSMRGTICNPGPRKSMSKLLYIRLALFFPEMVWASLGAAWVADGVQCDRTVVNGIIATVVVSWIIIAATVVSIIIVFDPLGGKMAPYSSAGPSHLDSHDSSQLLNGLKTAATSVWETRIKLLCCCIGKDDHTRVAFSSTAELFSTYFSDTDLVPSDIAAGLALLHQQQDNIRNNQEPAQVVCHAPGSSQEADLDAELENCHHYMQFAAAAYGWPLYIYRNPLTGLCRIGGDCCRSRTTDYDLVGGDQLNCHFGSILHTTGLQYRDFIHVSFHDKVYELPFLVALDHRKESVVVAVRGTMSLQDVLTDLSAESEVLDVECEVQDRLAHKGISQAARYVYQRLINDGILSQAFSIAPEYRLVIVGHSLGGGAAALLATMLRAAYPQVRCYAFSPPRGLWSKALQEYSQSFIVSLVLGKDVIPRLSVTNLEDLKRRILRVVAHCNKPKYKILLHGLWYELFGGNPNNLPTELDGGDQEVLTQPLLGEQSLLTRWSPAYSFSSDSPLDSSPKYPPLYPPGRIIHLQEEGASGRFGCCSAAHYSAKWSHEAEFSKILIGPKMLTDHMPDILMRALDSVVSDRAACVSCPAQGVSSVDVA

[10] = molecular target: T4, Diacylglycerol lipase-alpha (Mus musculus, UniProt Q6WQJ1); experiment: Inhibition of DAGLalpha in mouse brain proteome pre-incubated for 30 mins followed by ABP MB064 probe addition for 15 mins by ABPP assay; format: subcellular
T4 sequence (Q6WQJ1 whole entry): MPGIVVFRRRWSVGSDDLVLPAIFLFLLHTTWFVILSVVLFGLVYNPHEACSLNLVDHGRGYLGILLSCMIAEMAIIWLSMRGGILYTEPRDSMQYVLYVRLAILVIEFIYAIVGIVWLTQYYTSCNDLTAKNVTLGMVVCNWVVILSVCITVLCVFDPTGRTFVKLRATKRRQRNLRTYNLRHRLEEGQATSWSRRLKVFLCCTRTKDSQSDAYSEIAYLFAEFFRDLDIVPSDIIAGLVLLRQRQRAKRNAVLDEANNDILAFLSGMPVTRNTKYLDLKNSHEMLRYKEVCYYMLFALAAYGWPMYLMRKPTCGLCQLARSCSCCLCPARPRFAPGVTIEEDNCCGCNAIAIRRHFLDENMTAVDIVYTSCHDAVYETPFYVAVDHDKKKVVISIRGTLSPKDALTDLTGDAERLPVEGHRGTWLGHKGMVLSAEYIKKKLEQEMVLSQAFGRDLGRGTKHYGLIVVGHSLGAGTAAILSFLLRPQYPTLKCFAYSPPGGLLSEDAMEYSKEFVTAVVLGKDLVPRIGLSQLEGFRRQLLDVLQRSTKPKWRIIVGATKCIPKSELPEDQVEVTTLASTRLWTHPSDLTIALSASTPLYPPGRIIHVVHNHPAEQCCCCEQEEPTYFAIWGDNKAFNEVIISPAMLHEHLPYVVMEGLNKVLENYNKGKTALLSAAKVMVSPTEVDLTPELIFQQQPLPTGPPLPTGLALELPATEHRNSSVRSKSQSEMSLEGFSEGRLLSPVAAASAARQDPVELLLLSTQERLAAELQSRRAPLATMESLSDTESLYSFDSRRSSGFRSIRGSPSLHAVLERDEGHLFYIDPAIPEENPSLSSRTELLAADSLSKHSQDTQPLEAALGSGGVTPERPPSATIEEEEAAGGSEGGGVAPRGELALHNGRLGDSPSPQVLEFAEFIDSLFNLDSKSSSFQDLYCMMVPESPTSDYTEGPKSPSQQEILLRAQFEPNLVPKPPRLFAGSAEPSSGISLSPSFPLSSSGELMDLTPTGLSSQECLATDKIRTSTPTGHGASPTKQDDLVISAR

[11] = molecular target: T2, Diacylglycerol lipase-alpha; experiment: Inhibition of human DAGLalpha expressed in HEK293T cell membrane fractions using PNP butyrate as substrate preincubated for 20 mins followed by substrate addition by colorimetric surrogate substrate assay

Structure (SMILES)	IC50 [1] [nM]	IC50 [3] [nM]	IC50 [10] [nM]	further results
COc1ccccc1-c1ccc(-c2cn(C(=O)N3CCCCC3Cc3ccccc3)nn2)cc1 (stereo not drawn)	63.1	126	–	IC50 [2]: 79.4 nM
O=C(N1CCCCC1Cc1ccccc1)n1cc(-c2ccc(-c3ccccc3)cc2)nn1 (stereo not drawn)	39.8	2510	–	IC50 [4]: 25.1 nM; IC50 [2]: 79.4 nM
CC(C)(C)OC(=O)N1CCN(C(=O)n2cc(-c3ccc(OC(F)(F)F)cc3)nn2)C(Cc2ccccc2)C1 (stereo not drawn)	2.51	0.501	–	IC50 [5]: 7.94 nM
C#CCO[C@@H]1CC[C@H](Cc2ccccc2)N(C(=O)n2ncc(C(O)(c3ccc(F)cc3)c3ccc(F)cc3)n2)C1	5.01	1.26	–	–
CCCCCCCCCCCC(C[C@@H]1OC(=O)[C@H]1CCCCCC)OC(=O)[C@H](CC(C)C)NC=O (stereo partly drawn)	2000	–	–	IC50 [6]: 100 nM
O=C(NCCCCCCNC(=O)ON=C1CCCCC1)ON=C1CCCCC1	–	–	–	IC50 [7]: 5010 nM; IC50 [8]: 25100 nM
CCCCCCCCCCCC(C[C@@H]1OC(=O)[C@H]1CCCCCC)OC(=O)[C@@H](NC=O)C(C)CC (stereo partly drawn)	–	–	–	Ki (Cannabinoid receptor 1): 6000 nM; IC50 [9]: 6.31 nM
O=C(CCCCCc1ccccc1)c1nc2ncccc2o1	–	–	501	–
CC1(C)CCc2cc(S(=O)(=O)N(CC(=O)O)Cc3ccc(Oc4ccccc4)cc3)ccc2O1	–	–	126	IC50 [4]: 1000 nM
Cc1ccc(-c2cnc3nc(C(=O)CCCCCc4ccccc4)oc3c2)cc1	–	–	25.1	IC50 [11]: 3.16 nM

Source: ChEMBL document CHEMBL4425142, “Inhibitors of diacylglycerol lipases in neurodegenerative and metabolic disorders” (Bioorg Med Chem Lett, 2016)
